Assay results as given in patent US8282721B2, “Coloring composition, thermal transfer recording ink sheet, thermal transfer recording method, color toner, inkjet ink, color filter, and arylidene-pyrazolone dye” (FUJIFILM Corporation, priority 2008, dated 2012).

How the values were obtained:
Type in all cases: physicochemical
[1] = Dye solubility in methyl ethyl ketone/toluene; parameters: key: A (easily soluble); B (soluble); C (difficult to dissolve, but soluble); conditions: solvent methyl ethyl ketone/toluene (1/1, w/w), ranked in three
Text: The dye solubility of each compound in the solvent of methyl ethyl ketone/toluene (1/1, w/w) was ranked in three, A (easily soluble), B (soluble), C (difficult to dissolve, but soluble).

[2] = Light fastness of thermal transfer recorded image (Xe light exposure); conditions: Xe light (17000 lux) for 7 days; retention of status A reflection density 1.0; image from thermal transfer ink sheet
Text: (§1) The thermal transfer recording ink sheet produced in Example 201 and the image-receiving material constructed as above were combined in such a manner that the dye-donating layer could face the image-receiving layer, and this was printed using a thermal head applied to the back of the dye-donating material. The output power of the thermal head was 0.25 W/dot, pulse width was from 0.15 to 15 msec, the dot density was 6 dots/mm. In that manner, the magenta dye was imagewise fixed on the image-receiving layer of the image-receiving material, and as a result, a sharp image print with no transfer unevenness was obtained.
(§2) The thermal transfer recording ink sheets produced in Example 202 to 204 and produced in Comparative Example 201 to 203 were used in place of the thermal transfer recording ink sheet produced in Example 201, tested for image recording.
Next, the thermal transfer image-receiving material that had been recorded by the thermal transfer were exposed to a Xe light (17000 lux) for 7 days, and tested for the light stability (light fastness) of the recorded images. After the exposure, the status A reflection density of the part of each sample having an original status A reflection density of 1.0 before the exposure was measured, and the retention (by percentage) to the reflection density of 1.0 after exposure to that before exposure indicates the image stability. With the retention percentage, the samples were ranked in three, A (from 90% to less than 100%), B (from 80% to less than 90%), C (less than 80%).

[3] = Wet heat fastness of thermal transfer recorded image (80° C., 70% RH, dark); conditions: 80° C. and 70% RH in a dark place for 7 days; retention of Status A reflection density 1.0; image from thermal transfer ink sheet
Text: as §1, §2
Further, the thermal transfer image-receiving material that had been recorded by the thermal transfer in the same manner as above were stored under the condition of 80° C. and 70% RH in a dark place for 7 days, and checked for the wet heat stability (wet heat fastness) of the image. After exposure to light, the Status A reflection density of the area having an initial Status A reflection density of 1.0 was measured; and the density retentiveness (percentage) relative to the original reflection density 1.0 before exposure to light was computed. Based on the computed data, the samples were evaluated with regard to the stability into three ranks, A (from 90% to less than 100%), B (from 80% to less than 90%), and C (less than 80%).

[4] = Evaluation of maximum absorption wavelength (absorption spectrometry in ethyl acetate solution); conditions: concentration 1×10^−6 mol/L, optical path length 10 mm
Method: <Evaluation of Maximum Absorption Wavelength>
The thus-obtained arylidene-pyrazolone dyes of Examples 101 to 105 were analyzed absorption spectrometry in an ethyl acetate solution (concentration: 1×10^−6 mol/L, optical path length: 10 mm).

| Compound | Solubility [1] | Light Fastness [2] | Wet Heat Fastness [3] | Maximum Absorption Wavelength [4] [nm] |
| --- | --- | --- | --- | --- |
| CCOC1=NN(c2ccccc2)C(=O)/C1=C\c1ccc(N(CC)CC)cc1 [Comparative Dye 2] | B | A (A (from 90% to less than 100%)) | C (C (less than 80%)) |  |
| CCOC1=NN(C)C(=O)/C1=C\c1ccc(N(CC)CC)cc1 [Comparative Dye 3] | A | B (B (from 80% to less than 90%)) | C (C (less than 80%)) |  |
| C.I.Disperse Yellow 201 [Comparative Dye 1] | A | A (A (from 90% to less than 100%)) | C (C (less than 80%)) |  |

Second part, the compound after the results:

| Solubility [1] | Light Fastness [2] | Wet Heat Fastness [3] | Maximum Absorption Wavelength [4] [nm] | Compound |
| --- | --- | --- | --- | --- |
| A | A (A (from 90% to less than 100%)) | A (A (from 90% to less than 100%)) | 468 | CCOC1=NN(S(C)(=O)=O)C(=O)/C1=C\c1ccc(N(CC)CC)cc1 [Compound Y-1] |
| A | A (A (from 90% to less than 100%)) | A (A (from 90% to less than 100%)) | 462 | CCOC1=NN(S(=O)(=O)N(C)C)C(=O)/C1=C\c1ccc(N(CC)CC)cc1 [Compound Y-8] |
